{
  "source": "paper PMC5268383",
  "about": "“Inhibition of STAT3 by Anticancer Drug Bendamustine” (PLoS ONE, 2017)",
  "key": {"[1]": {"biological_target": "T1, cellular STAT3 in MDA-MB-468 cells (Homo sapiens, UniProt P40763)", "T1 construct": "endogenous in cells; host or cells: MDA-MB-468", "T1 sequence (P40763 2-770 limits assumed)": "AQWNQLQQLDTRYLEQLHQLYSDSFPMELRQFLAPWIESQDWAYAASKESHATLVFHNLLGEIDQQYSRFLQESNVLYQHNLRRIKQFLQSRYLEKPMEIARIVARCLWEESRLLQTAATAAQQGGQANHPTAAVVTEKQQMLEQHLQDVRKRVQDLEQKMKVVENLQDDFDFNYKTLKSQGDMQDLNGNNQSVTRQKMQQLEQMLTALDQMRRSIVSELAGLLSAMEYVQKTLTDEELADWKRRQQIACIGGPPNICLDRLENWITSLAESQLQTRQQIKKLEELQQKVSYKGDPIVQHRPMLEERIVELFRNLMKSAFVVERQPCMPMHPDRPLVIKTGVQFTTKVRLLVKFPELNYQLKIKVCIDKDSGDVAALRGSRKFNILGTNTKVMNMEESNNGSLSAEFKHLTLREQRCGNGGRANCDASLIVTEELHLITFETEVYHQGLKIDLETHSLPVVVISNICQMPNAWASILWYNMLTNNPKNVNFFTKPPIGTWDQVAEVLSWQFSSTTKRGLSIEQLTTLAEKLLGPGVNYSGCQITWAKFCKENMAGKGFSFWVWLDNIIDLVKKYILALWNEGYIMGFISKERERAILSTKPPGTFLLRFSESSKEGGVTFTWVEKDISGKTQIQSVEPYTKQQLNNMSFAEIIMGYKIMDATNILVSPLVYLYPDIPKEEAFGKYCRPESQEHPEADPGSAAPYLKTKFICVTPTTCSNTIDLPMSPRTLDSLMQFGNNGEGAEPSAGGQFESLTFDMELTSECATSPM", "test": "Pull-down assay using Bio-BENDA, anti-STAT3 immunoprecipitation", "assay_type": "cell-based", "conditions": "50 μM Bio-BENDA plus excess free drug, 4 h", "method": "MDA-MB-468 cells were treated with biotinylated BENDA (Bio-BENDA) in the presence or absence of an excess amount of free drugs for 4 h and then lysed in PhosphoSafe™ Extraction Reagent (Merck, Darmstadt, Germany). Lysate (200 μL) was precleared with a mixture of Protein G Plus/Protein A Agarose Suspension (EMD Millipore, Billerica, MA, USA) for 1 h at 4°C and protein A and G agarose were removed by centrifugation at 13,000 rpm for 10 min. The lysate (200 μL) was immunoprecipitated with STAT3 antibody (1 μL) overnight at 4°C on a shaker and the immunocomplex was captured by the addition of a Protein G Plus/Protein A Agarose Suspension (30 μL) slurry for 1 h at 4°C. Samples were washed five times with lysis buffer and then boiled four times in SDS-PAGE sample buffer and run on an SDS-PAGE gel. The protein was transferred to a nitrocellulose membrane. The membranes were blocked in 5% skim milk in TBS/0.1% Tween 20. They were then incubated with streptavidin-HRP diluted at 1:2000 in 1.5% skim milk in TBS (pH7.4)/0.1% Tween 20 overnight at 4°C. Immunoblots were developed by using a chemiluminescent substrate."}, "[2]": {"biological_target": "T2, STAT3-CFP / STAT3-YFP in HEK293 cells (Homo sapiens, UniProt P40763)", "T2 construct": "expressed in transfected cells; host or cells: HEK293", "T2 sequence (P40763 whole entry, the tested form may be a part)": "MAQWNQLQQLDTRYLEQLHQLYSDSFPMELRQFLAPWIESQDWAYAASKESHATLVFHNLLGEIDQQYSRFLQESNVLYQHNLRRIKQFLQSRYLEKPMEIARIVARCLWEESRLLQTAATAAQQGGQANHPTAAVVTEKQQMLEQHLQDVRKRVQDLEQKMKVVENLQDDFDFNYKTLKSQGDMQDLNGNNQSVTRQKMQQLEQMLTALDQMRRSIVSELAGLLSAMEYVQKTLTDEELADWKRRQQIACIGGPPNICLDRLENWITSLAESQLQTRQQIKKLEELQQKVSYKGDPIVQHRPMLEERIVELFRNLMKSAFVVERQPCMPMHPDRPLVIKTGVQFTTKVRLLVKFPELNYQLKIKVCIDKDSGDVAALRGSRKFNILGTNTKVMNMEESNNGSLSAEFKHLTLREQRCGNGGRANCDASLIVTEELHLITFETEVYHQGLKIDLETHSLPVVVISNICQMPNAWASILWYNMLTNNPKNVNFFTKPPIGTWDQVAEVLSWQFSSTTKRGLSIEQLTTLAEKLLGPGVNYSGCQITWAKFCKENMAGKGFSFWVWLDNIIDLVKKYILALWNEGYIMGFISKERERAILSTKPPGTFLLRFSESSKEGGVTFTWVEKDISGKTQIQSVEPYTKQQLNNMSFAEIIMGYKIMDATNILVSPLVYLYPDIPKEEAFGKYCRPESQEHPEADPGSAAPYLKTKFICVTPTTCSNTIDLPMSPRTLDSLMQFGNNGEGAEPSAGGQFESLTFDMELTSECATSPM", "test": "FRET assay of STAT3 dimerization", "assay_type": "cell-based", "conditions": "HEK293, 10, 20 or 50 μM, pretreatment before 50 ng/mL IL-6 stimulation", "method": "The expression vectors for the fusion proteins STAT3-CFP and STAT3-YFP were prepared by the addition of STAT3 cDNA to pAmCyan1-N1 and pZsyellow1-N1. The vector mixture (1:1) was transfected into HEK293 cells with Lipofectamine 2000. The cells were cultured with 2% FBS DMEM for 48 h in a 96-well microtiter plate, treated with 0, 10, 20, or 50 μM BENDA or HP2 in a final DMSO concentration of 0.2% for 24 h, and then stimulated with 50 ng/mL IL-6 for a further 1 h. Fluorescence signals were measured (SpectraMax M5SK). The signals measured by FRET (excitation/emission: 436/528 nm) were corrected for crosstalk signals from cyan (excitation/emission: 436/488 nm) and yellow (excitation/emission: 517/528 nm)."}, "[3]": {"biological_target": "T3, recombinant human STAT3 SH2 domain (Homo sapiens, UniProt P40763)", "T3 construct": "Full-length cDNAs were obtained from a human cDNA library by PCR; Avi-tag (biotinylated in BirA-BL21) (N); made in house; host or cells: Escherichia coli BirA-BL21", "T3 sequence (P40763 whole entry, the tested form may be a part)": "as above", "test": "AlphaScreen SH2 binding assay, STAT3", "method": "(§1) AlphaScreen assays were performed in a final reaction volume of 25 μL of the assay buffer, containing 10 mM HEPES-NaOH (pH 7.4), 50 mM NaCl, 1 mM EDTA (pH 8.0), 0.1% NP-40, and 10 ng/mL BSA in a 96-well microtiter plate at 25°C. The labeled Phospho-Tyr (pTyr) peptide probe was 5-carboxyfluorescein (FITC)-GpYLPQTV for STAT3, FITC-GpYDKPHVL for STAT1, and FITC-PSpYVNVQN for Grb2. A DMSO solution of BENDA was incubated with 50 nM of each SH2-containing protein for 15 min, 50 nM of the corresponding FITC-pTyr peptide was added, and the mixture was incubated for 90 min. Streptavidin-coated donor beads and anti-FITC acceptor beads were added and incubated for 90 min before the signals were measured with an Envision Xcite plate reader (PerkinElmer Life Sciences, Waltham, MA, USA)."}, "[4]": {"biological_target": "T4, Grb2 SH2 (Homo sapiens, UniProt P62993)", "T4 construct": "Avi-tag (N); 6His-tag (N)", "T4 sequence (P62993 whole entry)": "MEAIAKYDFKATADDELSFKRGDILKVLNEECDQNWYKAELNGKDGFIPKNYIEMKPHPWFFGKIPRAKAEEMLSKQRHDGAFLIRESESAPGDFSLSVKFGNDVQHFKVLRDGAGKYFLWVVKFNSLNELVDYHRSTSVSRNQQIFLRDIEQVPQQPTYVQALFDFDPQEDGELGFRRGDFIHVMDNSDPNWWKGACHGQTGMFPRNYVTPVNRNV", "test": "AlphaScreen SH2 binding assay, Grb2", "method": "as §1"}, "[5]": {"biological_target": "T5, STAT1 SH2 (Homo sapiens, UniProt P42224)", "T5 construct": "Avi-tag (N); 6His-tag (N)", "T5 sequence (P42224 whole entry)": "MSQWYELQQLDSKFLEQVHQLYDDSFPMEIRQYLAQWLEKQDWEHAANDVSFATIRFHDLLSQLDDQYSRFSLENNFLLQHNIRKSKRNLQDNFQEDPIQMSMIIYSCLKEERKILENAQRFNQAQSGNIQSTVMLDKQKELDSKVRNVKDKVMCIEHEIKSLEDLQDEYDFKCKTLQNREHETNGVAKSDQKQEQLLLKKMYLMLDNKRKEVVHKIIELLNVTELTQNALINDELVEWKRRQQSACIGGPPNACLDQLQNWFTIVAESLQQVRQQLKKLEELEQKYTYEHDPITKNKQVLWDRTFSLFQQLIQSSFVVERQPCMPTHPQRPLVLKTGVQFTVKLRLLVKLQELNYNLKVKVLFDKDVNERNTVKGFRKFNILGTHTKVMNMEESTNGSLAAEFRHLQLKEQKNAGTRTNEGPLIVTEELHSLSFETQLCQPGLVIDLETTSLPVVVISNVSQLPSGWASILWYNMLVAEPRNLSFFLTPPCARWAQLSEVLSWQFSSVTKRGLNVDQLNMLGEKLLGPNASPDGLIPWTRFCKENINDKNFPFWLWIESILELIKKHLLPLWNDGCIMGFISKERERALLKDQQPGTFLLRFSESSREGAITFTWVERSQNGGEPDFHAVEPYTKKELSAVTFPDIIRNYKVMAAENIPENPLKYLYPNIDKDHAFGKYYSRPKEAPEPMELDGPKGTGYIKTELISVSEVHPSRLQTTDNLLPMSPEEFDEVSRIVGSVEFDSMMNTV", "test": "AlphaScreen SH2 binding assay, STAT1", "method": "as §1"}, "[6]": {"test_system": "cyclin D1, survivin and Bcl-2 mRNA in MDA-MB-468 cells", "test": "RT-PCR of STAT3 target genes cyclin D1, survivin, Bcl-2", "assay_type": "cell-based, human", "conditions": "MDA-MB-468, 50 or 100 μM, 8 h"}, "[7]": {"test_system": "c-myc mRNA in MDA-MB-468 cells", "test": "RT-PCR of c-myc mRNA", "assay_type": "cell-based, human", "conditions": "8 h"}, "[8]": {"biological_target": "T6, STAT3-DNA complex (c-myc promoter) in MDA-MB-468 cells (Homo sapiens, UniProt P40763)", "T6 construct": "endogenous in cells; host or cells: MDA-MB-468", "T6 sequence (P40763 2-770 limits assumed, one chain of several)": "as the sequence (P40763 2-770 limits assumed) above", "test": "ChIP assay, c-myc promoter binding by STAT3", "assay_type": "cell-based", "conditions": "MDA-MB-468, 8 h; BENDA 25, 50, 100 μM, HP2 50, 100 μM", "method": "A ChIP assay was performed with an ExactaChIP Human/Mouse STAT3 ChIP kit (R&D Systems, Minneapolis, MN, USA). MDA-MB-468 cancer cells were fixed with 1% formaldehyde and treated with the lysis buffer. After sonication, anti-STAT3 antibody or normal mouse IgG was added to the extract, followed by precipitation with Protein G Plus/Protein A Agarose Suspension. The eluted DNA fraction was used for PCR with human c-myc primers."}},
  "note": "Entries after “also recorded” stand apart in the source; their conditions may differ.",
  "data": [
    {"compound": "Cn1c(CCCC(=O)O)nc2cc(N(CCCl)CCCl)ccc21", "note": "[BENDA, 4-{5-[bis(2-chloroethyl)amino]-1-methyl-2-benzimidazolyl} butyric acid]", "values": [
      {"measurement": "Competition of Bio-BENDA STAT3 band intensity by excess free drug", "setting": "[1]", "result": "competitively reduced"},
      {"measurement": "Effect on FRET signals (STAT3 dimerization)", "setting": "[2]", "result": "reduced the FRET signals"},
      {"measurement": "IC50", "setting": "[3]", "result": 7.4, "unit": "µM"},
      {"measurement": "SH2 binding inhibition in presence of 2-mercaptoethanol", "setting": "[3]; 200 μM (0.2 mM) 2-mercaptoethanol, data not shown", "result": "did not inhibit; also recorded: wholly inactivated"},
      {"measurement": "SH2 inhibitory activity in presence of excess L-cysteine", "setting": "[3]; 200 μM (0.2 mM) L-cysteine added to assay mixture", "result": "attenuated; also recorded: wholly inactivated"},
      {"measurement": "IC50", "setting": "[4]", "result": "> 100", "unit": "µM"},
      {"measurement": "IC50", "setting": "[5]", "result": 60, "unit": "µM"},
      {"measurement": "Bcl-2 mRNA expression", "setting": "[6]", "result": "dose-dependent decrease"},
      {"measurement": "cyclin D1 mRNA expression", "setting": "[6]", "result": "dose-dependent decrease"},
      {"measurement": "survivin mRNA expression", "setting": "[6]", "result": "dose-dependent decrease"},
      {"measurement": "c-myc mRNA expression, % of vehicle treatment", "setting": "[7]; MDA-MB-468, 50 μM", "result": 72, "unit": "%"},
      {"measurement": "c-myc mRNA expression, % of vehicle treatment", "setting": "[7]; MDA-MB-468, 100 μM", "result": 33, "unit": "%"},
      {"measurement": "Amplified c-myc promoter band in STAT3 ChIP", "setting": "[8]", "result": "reduced"}
    ]}
  ]
}
